Reference: patent US10098853B2, “Composition for treating atherosclerosis and a preparation method thereof” (KAOHSIUNG MEDICAL UNIVERSITY, priority 2011, dated 2018)
Entries after “also recorded” stand apart in the source; their conditions may differ.

Key:
cyclin D1 = test: Cyclin D1 protein expression in Ox-LDL treated HASMCs (immunoblotting); assay type: cell-based, human; conditions: FIG. 9, PD98059 10^−5 M, compound 1 5 μg/ml, rosiglitazone 5 μg/ml, Ox-LDL 30 μg/ml, 8 hours
Text: (§1) Three independent experiments are made in each group.

cyclin D3 = test: Cyclin D3 protein expression in Ox-LDL treated HASMCs (immunoblotting); assay type: cell-based, human; conditions: FIG. 9, PD98059 10^−5 M, compound 1 5 μg/ml, rosiglitazone 5 μg/ml, Ox-LDL 30 μg/ml, 8 hours
Text: as §1

Ki-67 protein = Ki-67 protein immunofluorescence in Ox-LDL stimulated HASMCs; assay type: cell-based, human; conditions: Ox-LDL 30 μg/ml, 24 hours; for positive stains of Ki-67: compound 1 5 μg/ml or PD98059 10^−5 M
Experimental: For analyzing the mechanisms of compound 1 on inhibiting HASMCs proliferation, the cellular marker for proliferation, Ki-67 protein (also known as MKI67), detected with green fluorescence was the index for HASMCs proliferation. The experiment method was to stimulate HASMCs with Ox-LDL (30 μg/ml) for 24 hours, and simultaneously compound 1 (5 μg/ml) or PD98059 (an ERK 1/2 inhibitor, 10^−5 M) was added. A mouse anti-Ki-67 monoclonal antibody was combined with a DyLight™488-conjugated second antibody to confirm the HASMCs proliferation. DAPI (4′,6-diamidino-2-phenylindole), a fluorescent stain that binds strongly to DNA, was used to localize cell nuclei. Cells were observed under flourescence microscopy. The proliferative cells were quantified by counting the ratio of DyLight™488 (green) fluorescence and DAPI (blue) fluorescence.

PPARγ [1] = test: PPARγ mRNA expression in HASMCs (real-time PCR); assay type: cell-based, human
Experimental: The anti-inflammatory effect of compound 1 was determined by the mRNA expressions of IL-1β and IL-6. HASMCs were stimulated with Ox-LDL (30 μg/ml) for 8 hours, and simultaneously treated with (i) PD98059 (5 μg/ml), (ii) rosiglitazone (5 μg/ml), (iii) compound 1 (5 μg/ml) and (iv) rosiglitazone (5 μg/ml) plus compound 1 (5 μg/ml). […] SEQ ID Nos: 1 and 2 were paired in amplification of IL-1β gene, SEQ ID Nos: 3 and 4 were paired in amplification of IL-6 gene, SEQ ID Nos: 5 and 6 were paired in amplification of PPARα gene, SEQ ID Nos: 7 and 8 were paired in amplification of PPARγ gene, and SEQ ID Nos: 9 and 10 were paired in amplification of β-actin gene.
This experiment was performed to investigate the regulatory mechanism of compound 1 on PPARγ based on PPARγ mRNA expression in HASMCs. […]

PPARα = PPARα mRNA expression in HASMCs (real-time PCR); assay type: cell-based, human; conditions: FIG. 6(b); with Ox-LDL 30 μg/ml, compound 1 5 μg/ml, 2, 4, 8 and 24 hours
PPARγ [2] = test: PPARγ protein expression in HASMCs (immunoblotting); assay type: cell-based, human; conditions: FIG. 7(b); compound 1 alone, 0, 1, 2.5 and 5 μg/ml, 4 and 8 hours
Experimental: FIG. 7(a) and FIG. 7(b) respectively are (a) the diagram showing PPARγ mRNA expression and (b) an immunoblotting spectrum showing the PPARγ protein expression of compound 1 (0, 1, 2.5 and 5 μg/ml) on HASMCs for 4 and 8 hours. Data are represented as mean±S.D. in three independent experiments. a: p<0.001, b: p<0.01.
To further confirm whether compound 1 is an inducer of PPARγ for HASMCs, cells were stimulated with compound 1 alone.

[3] = system: human aortic smooth muscle cells (HASMCs); test: HASMCs proliferation induced by LPS (WST-1); assay type: cell-based
Experimental: First, HASMCs were seeded into 96-well plates.
Chalcone compounds 1 to 29 at different concentrations prepared in Experiment 1 were used to determine the effect of HASMCs proliferation induced by LPS. […] In reference to the drug concentration for cytotoxicity that HASMCs tolerate, the chalcone compounds having the relevant substituents to compound 1 were selected (rather than all chalcone compounds) to compare with each other at the same concentration.

[4] = system: human aortic smooth muscle cells (HASMCs); test: HASMCs proliferation and cell viability induced by Ox-LDL (WST-1); conditions: FIG. 2; 1, 2.5 and 5 μg/ml, Ox-LDL 30 μg/ml, 24 hours
Experimental: For analyzing whether each genus of flavonoid compounds could inhibit the activity of HASMCs proliferation, the proliferation and cell viability of HASMCs were determined using WST-1 reagent (Roche Applied Science, Penzberg, Germany). WST-1 is a tetrazolium salt that will be cleaved to formazan by mitochondrial dehydrogenases in viable cells. First, HASMCs were seeded into 96-well plates. […] At the end of incubation, WST-1 was added into cell medium and the amount of formazan was measured at a wavelength of 450 nm by an ELISA reader.

CN(CCOc1ccc(CC2SC(=O)NC2=O)cc1)c1ccccn1 (racemic) [rosiglitazone, (RS)-5-[4-(2-[methyl(pyridin-2-yl)amino]ethoxy)benzyl]thiazolidine-2,4-dione]
cyclin D1 protein expression induced by Ox-LDL (cyclin D1): did not significantly decrease cyclin D1 and D3 protein expression; also recorded: but not PD98059 and rosiglitazone, significantly decreased the cyclin D1 and D3 upregulation | cyclin D3 protein expression induced by Ox-LDL (cyclin D3): did not significantly decrease cyclin D1 and D3 protein expression; also recorded: but not PD98059 and rosiglitazone, significantly decreased the cyclin D1 and D3 upregulation

COc1cccc(-c2cc(=O)c3ccccc3o2)c1N [PD98059, 2-(2-amino-3-methoxyphenyl)-chromen-4-one]
positive stains of Ki-67 (Ki-67 protein): decreased the positive stains of Ki-67 | cyclin D1 protein expression induced by Ox-LDL (cyclin D1): did not significantly decrease cyclin D1 and D3 protein expression; also recorded: but not PD98059 and rosiglitazone, significantly decreased the cyclin D1 and D3 upregulation | cyclin D3 protein expression induced by Ox-LDL (cyclin D3): did not significantly decrease cyclin D1 and D3 protein expression; also recorded: but not PD98059 and rosiglitazone, significantly decreased the cyclin D1 and D3 upregulation

COc1ccc(/C=C/C(=O)c2ccccc2O)cc1 [compound 1]
reduction of proliferative (Ki-67 positive) cells compared to Ox-LDL stimulated HASMCs (Ki-67 protein; FIG. 3, 5 μg/ml): about 10% | positive stains of Ki-67 (Ki-67 protein): decreased the positive stains of Ki-67 | time at which maximum PPARγ mRNA expression was reached (PPARγ [1]; FIG. 6(a), with Ox-LDL 30 μg/ml, compound 1 5 μg/ml): 8 h | PPARγ mRNA expression (PPARγ [1]; FIG. 6(a), with Ox-LDL 30 μg/ml, compound 1 5 μg/ml, 2, 4, 8 and 24 hours): significantly increased PPARγ mRNA expression post 4 hours administration | PPARγ mRNA expression (PPARγ [1]; FIG. 7(a), compound 1 alone, 0, 1, 2.5 and 5 μg/ml, 4 and 8 hours): significantly increased PPARγ mRNA and protein expression in dose and time dependent manners | PPARα mRNA expression (PPARα): neither Ox-LDL nor compound 1 stimulated PPARα mRNA upregulation | PPARγ protein expression (PPARγ [2]): significantly increased PPARγ mRNA and protein expression in dose and time dependent manners | cyclin D1 protein expression induced by Ox-LDL (cyclin D1): significantly inhibited cyclin D1 and D3 protein upregulation induced by Ox-LDL | cyclin D1 protein expression induced by Ox-LDL (cyclin D1; listed as Compound 1): significantly decreased the cyclin D1 and D3 upregulation | cyclin D3 protein expression induced by Ox-LDL (cyclin D3): significantly inhibited cyclin D1 and D3 protein upregulation induced by Ox-LDL | cyclin D3 protein expression induced by Ox-LDL (cyclin D3; listed as Compound 1): significantly decreased the cyclin D1 and D3 upregulation | inhibition activity on HASMCs proliferation induced by LPS ([3]; FIG. 11(a), 5 μg/ml): compound 1 rather than compound 7 has inhibition activity | inhibition activity on HASMCs proliferation induced by LPS ([3]; FIG. 11(b), 2.5 μg/ml): compound 1 rather than compound 5 had inhibition activity | cytotoxicity to HASMCs ([3]; FIG. 11(c), 2 μg/ml): non-toxic to cells | inhibition activity on HASMCs proliferation induced by LPS ([3]; FIG. 11(c), 2 μg/ml): had the best inhibition activity | cell proliferation compared to Ox-LDL treatment group [4]: significantly decreased in a dose dependent manner

O=C(/C=C/c1ccccc1)c1ccc(O)cc1O [compound 2]
cytotoxicity to HASMCs ([3]; FIG. 11(c), 2 μg/ml): would lead to death of a part cells

O=C(/C=C/c1ccc(OCc2ccccc2)cc1)c1ccc(O)cc1O [compound 3]
inhibition activity on HASMCs proliferation induced by LPS ([3]; FIG. 11(c), 2 μg/ml): compound 3 rather than compound 6 had inhibition activity

COc1cccc(/C=C/C(=O)c2ccccc2O)c1 [compound 4]
inhibition activity on HASMCs proliferation induced by LPS ([3]; FIG. 11(a), 5 μg/ml): both had the similar inhibition activity

COc1ccc(/C=C/C(=O)c2ccc(O)cc2O)cc1 [compound 5]
inhibition activity on HASMCs proliferation induced by LPS ([3]; FIG. 11(b), 2.5 μg/ml): compound 1 rather than compound 5 had inhibition activity

COc1cccc(/C=C/C(=O)c2ccc(O)cc2O)c1 [compound 6]
inhibition activity on HASMCs proliferation induced by LPS ([3]; FIG. 11(c), 2 μg/ml): compound 3 rather than compound 6 had inhibition activity

COc1ccc(/C=C/C(=O)c2ccccc2)cc1 [compound 7]
inhibition activity on HASMCs proliferation induced by LPS ([3]; FIG. 11(a), 5 μg/ml): compound 1 rather than compound 7 has inhibition activity

COc1cccc(/C=C/C(=O)c2ccccc2)c1 [compound 8]
inhibition activity on HASMCs proliferation induced by LPS ([3]; FIG. 11(c), 2 μg/ml): did not have inhibition activity

O=C(/C=C/c1ccccc1)c1ccccc1 [compound 9]
inhibition activity on HASMCs proliferation induced by LPS ([3]; FIG. 11(c), 2 μg/ml): showed no inhibition activity

O=C(/C=C/c1ccccc1)c1ccccc1O [compound 10]
inhibition activity on HASMCs proliferation induced by LPS ([3]; FIG. 11(b), 2.5 μg/ml): did not have inhibition activity

O=C(/C=C/c1cccc(OCc2ccccc2)c1)c1ccccc1O [compound 11]
cytotoxicity to HASMCs ([3]; FIG. 11(c), 2 μg/ml): would lead to death of a part cells

COc1ccc(/C=C/C(=O)c2ccccc2Br)cc1 [compound 12]
inhibition activity on HASMCs proliferation induced by LPS ([3]; FIG. 11(b), 2.5 μg/ml): compound 12 rather than compound 14 had inhibition activity

COc1cccc(/C=C/C(=O)c2cccc(Br)c2)c1 [compound 14]
inhibition activity on HASMCs proliferation induced by LPS ([3]; FIG. 11(b), 2.5 μg/ml): compound 12 rather than compound 14 had inhibition activity

COc1cccc(/C=C/C(=O)c2ccc(Cl)cc2)c1 [compound 15]
cytotoxicity to HASMCs ([3]; FIG. 11(c), 2 μg/ml): would lead to death of a part cells

O=C(/C=C/c1ccccc1)c1cc(Br)ccc1O [compound 19]
cytotoxicity to HASMCs ([3]; FIG. 11(a), 5 μg/ml): would lead to death of a part of cells | inhibition activity on HASMCs proliferation induced by LPS ([3]; FIG. 11(a), 5 μg/ml): had inhibition activity

COc1ccc(/C=C/C(=O)c2cc(Br)ccc2O)cc1 [compound 20]
cytotoxicity to HASMCs ([3]; FIG. 11(a), 5 μg/ml): would lead to death of a part of cells | inhibition activity on HASMCs proliferation induced by LPS ([3]; FIG. 11(a), 5 μg/ml): had inhibition activity

COc1cccc(/C=C/C(=O)c2cc(Br)ccc2O)c1 [compound 21]
cytotoxicity to HASMCs ([3]; FIG. 11(a), 5 μg/ml): would lead to death of a part of cells | inhibition activity on HASMCs proliferation induced by LPS ([3]; FIG. 11(a), 5 μg/ml): had inhibition activity

O=C(/C=C/c1cccc(OCc2ccccc2)c1)c1cc(Br)ccc1O [compound 22]
cytotoxicity to HASMCs ([3]; FIG. 11(c), 2 μg/ml): would lead to death of a part cells

O=C(/C=C/c1ccc(OCc2ccccc2)cc1)c1cc(Br)ccc1O [compound 23]
cytotoxicity to HASMCs ([3]; FIG. 11(a), 5 μg/ml): would lead to death of a part of cells | inhibition activity on HASMCs proliferation induced by LPS ([3]; FIG. 11(a), 5 μg/ml): had inhibition activity

O=C(/C=C/c1ccc(OCc2ccccc2)cc1)c1ccccc1O [compound 25]
cytotoxicity to HASMCs ([3]; FIG. 11(a), 5 μg/ml): would result in HASMC death

COc1ccc(/C=C/C(=O)c2ccccc2I)cc1 [compound 26]
inhibition activity on HASMCs proliferation induced by LPS ([3]; FIG. 11(b), 2.5 μg/ml): slightly better than that of compounds 26 and 28

COc1ccc(/C=C/C(=O)c2ccccc2F)cc1 [compound 27]
inhibition activity on HASMCs proliferation induced by LPS ([3]; FIG. 11(b), 2.5 μg/ml): inhibition activity of compound 1 was better than those of compounds 12 and 27

COc1ccc(/C=C/C(=O)c2ccccc2Cl)cc1 [compound 28]
inhibition activity on HASMCs proliferation induced by LPS ([3]; FIG. 11(b), 2.5 μg/ml): slightly better than that of compounds 26 and 28

O=C(/C=C/c1ccc(O)cc1)c1ccccc1 [compound 29]
inhibition activity on HASMCs proliferation induced by LPS ([3]; FIG. 11(c), 2 μg/ml): had no inhibition activity
